This is an account of results in US20260234150A1, “COMPOUND FOR INHIBITING NLRP3, PREPARATION METHOD, AND USE” (DOVETREE MEDICINES UNUS, INC., priority 2023, published 2026).

The structures appear in SMILES notation. Bounds are passed on as bounds.

In the test the target is T1, CYP1A2 (Homo sapiens, UniProt P05177).
T1 construct: 0.05 mg/mL liver microsome (BioIVT, IHG) phosphate buffer solution; tissue BioIVT IHG; host or cells: human liver microsomes
T1 sequence (P05177 1-516): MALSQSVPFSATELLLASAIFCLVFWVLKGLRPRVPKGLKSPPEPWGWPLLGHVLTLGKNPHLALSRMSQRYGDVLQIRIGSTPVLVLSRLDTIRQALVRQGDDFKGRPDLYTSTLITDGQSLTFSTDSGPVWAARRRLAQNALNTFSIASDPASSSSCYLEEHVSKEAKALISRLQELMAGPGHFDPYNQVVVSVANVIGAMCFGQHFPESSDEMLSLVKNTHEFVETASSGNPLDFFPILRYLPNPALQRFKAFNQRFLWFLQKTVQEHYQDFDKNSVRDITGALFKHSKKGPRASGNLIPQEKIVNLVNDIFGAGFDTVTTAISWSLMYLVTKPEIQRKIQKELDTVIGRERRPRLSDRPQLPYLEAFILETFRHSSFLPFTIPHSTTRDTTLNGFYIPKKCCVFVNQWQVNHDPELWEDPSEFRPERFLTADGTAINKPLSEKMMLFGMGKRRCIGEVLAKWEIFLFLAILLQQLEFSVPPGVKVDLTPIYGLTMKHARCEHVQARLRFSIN
The test can be described thus: CYP450 enzyme inhibition in human liver microsomes, CYP1A2. It is filed as in vitro ADME. The following applies: substrate Phenacetin, read-out: Inhibitory activity IC50 (μM) CYP1A2. The protocol: This experiment incubates the compound, liver microsomes and different CYP subtype enzyme substrates in a 37° C. water bath to measure the amount of substrate metabolites produced and evaluate the inhibitory effect of the compound of the present disclosure on CYP enzymes based on the IC50 value.
i. The compound was diluted to 0, 0.02 mM, 0.06 mM, 0.2 mM, 0.6 mM, 2 mM and 6 mM concentrations with DMSO (Aladdin, catalog number: D103273-500 ml).
ii. The enzyme substrate solutions of each CYP subtype were prepared by phosphate buffer (sigma: V900050-500G).
iii. Sample incubation. […] After centrifugation at 4000 rpm and 4° C. for 40 min, the supernatant was diluted with pure water according to the response of the substrate metabolites and then detected by UPLC-MS/MS (Sciex, Q-Trap 4500). […]
The inhibitory effect of the compound on each P450 enzyme in human liver microsomes was calculated as the percentage of reduced metabolite formation compared with the non-inhibitory control (i.e., blank DMSO). The IC50 value for each P450 enzyme in human liver microsomes was calculated using the logarithm of the remaining activity and the inhibitor concentration using Graphpad Prism software. […]

The IC50 is the point on the concentration scale where inhibition reaches its midpoint. As to `CC(=O)N1CCOC[C@H]1CNc1nc2nc(-c3c(C)cc(C(F)(F)F)cc3O)ccc2o1` [Compound 111], the IC50 is over 30 µM.
